Counter-ions that a name gives are not always drawn.
Experiments:
L6-myotubes [1] = assay: Glucose uptake (3H-2-deoxy-glucose) in differentiated L6-myotubes; assay type: cell-based; conditions: agonist final concentration 1×10^−5; for Emax at 10 µM: differentiated L6-myotubes, Table 1, read-out: Biological example 1 (glucose uptake, activity compared to that of isoproterenol); for Biological example 3: Table 2, glucose uptake assay of Biological Example 1
Method: (§1) L6-myoblasts were grown in Dulbecco's Modified Eagle's Medium (DMEM) containing 4.5 g/l glucose supplemented with 10% fetal bovine serum, 2 mM L-Glutamine, 50 U/ml penicillin, 50 μg/ml streptomycin and 10 mM HEPES. Cells were plated at 1×10^5 cells per ml in 24-well plates. After reaching 90% confluence the cells were grown in medium containing 2% FBS for 7 days where upon cells differentiated into myotubes.
Differentiated L6-myotubes were serum-starved overnight in medium containing 0,5% fatty-acid free BSA and stimulated with agonist, final concentration 1×10^−5. After 1 h 40 min cells were washed with warm, glucose free medium or PBS and another portion of agonist was added to glucose free medium. After 20 min the cells were exposed to 50 nM ^3H-2-deoxy-glucose for another 10 min before washed in ice cold glucose free medium or PBS and lysed in 0.2 M NaOH for 1 h in 60° C.

L6-myotubes [2] = assay: Measurement of intracellular cAMP levels in differentiated L6-myotubes; assay type: cell-based; conditions: for Emax at 10 µM: 0.25 h, agonist final concentration 1×10^−5, 15 min, differentiated cells, Table 1, read-out: Biological example 2 (intracellular cAMP levels, activity compared to that of isoproterenol); for Biological example 4: Table 2, cAMP assay of Biological Example 2, agonist final concentration 1×10^−5
Method: as §1
Differentiated cells were serum-starved overnight and stimulated with agonist, final concentration 1×10^−5, for 15 min in stimulation buffer (HBSS supplemented with 1% BSA, 5 mM HEPES and 1 mM IBMX, pH 7,4) The medium was then aspirated and to end the reaction 100 μL of 95% EtOH was added to each well of a 24-well plate and cells were kept in −20° C. over night. The EtOH was let to evaporate and 500 μL of lysis buffer (1% BSA, 5 mM HEPES and 0,3% Tween-20, pH 7,4) was added to each well before put in −80° C. for 30 min and then kept in −20° C. Intracellular cAMP levels were detected using an alpha screen cAMP kit (6760635D from Perkin Elmer). The activity for each compound is compared to that of isoproterenol.

Q: For `CC1(C)CC[C@@H]([C@H](O)c2cccc(O)c2)N1` [Example 17], which Emax at 10 µM (L6-myotubes [1]) is on record?
A: 25 to 50%

Q: And the Emax at 10 µM (L6-myotubes [2])?
A: < 25%

Q: Which results are given for `CC1(C)CC[C@H]([C@@H](O)c2cccc(O)c2)N1` [Example 16, (S)-((R)-5,5-Dimethylpyrrolidin-2-yl)(hydroxy)methyl)phenol acetate]?
A: Emax at 10 µM (L6-myotubes [1]): 50 to 75%; Emax at 10 µM (L6-myotubes [2]): < 25%

Q: `CC1(C)CC[C@H]([C@@H](O)c2ccccc2F)N1` [Example 20, (S)-((R)-5,5-Dimethylpyrrolidin-2-yl)(2-fluorophenyl)methanol hydrochloride] was tested. Which Emax at 10 µM (L6-myotubes [1]) did it give?
A: 25 to 50%

Q: And the Emax at 10 µM (L6-myotubes [2])?
A: < 25%

Q: `CC1(C)C[C@@H]([C@H](O)c2cccc(Cl)c2)N1.O=C(O)/C=C\C(=O)O` [Example 47, (R)-(3-chlorophenyl)((S)-4,4-dimethylazetidin-2-yl)methanol maleate] was tested. Which “Biological example 3” value (L6-myotubes [1]) did it give?
A: ++ (between 75 and 50%)

Q: What about the “Biological example 4” value (L6-myotubes [2]) of the same molecule?
A: − (less than 25%)

Q: How did the “Biological example 3” value (L6-myotubes [1]) turn out when `CC1(C)C[C@H]([C@H](O)c2ccccc2F)N1.Cl` [Example 35, (R)-((R)-4,4-dimethylazetidin-2-yl)(2-fluorophenyl)methanol hydrochloride] was run?
A: +++ (more than 75% of that of isoproterenol)

Q: What about the “Biological example 4” value (L6-myotubes [2]) of the same molecule?
A: + (between 50 and 25%)

Q: For `CC1(C)CCC[C@H]([C@@H](O)c2ccccc2Cl)N1` [Example 6, (S)-(2-Chlorophenyl)((R)-6,6-dimethylpiperidin-2-yl)methanol hydrochloride], which Emax at 10 µM (L6-myotubes [1]) is on record?
A: > 75%

Q: And the Emax at 10 µM (L6-myotubes [2])?
A: < 25%

Q: Which Emax at 10 µM (L6-myotubes [1]) does the source give for `CC1(C)CC[C@H]([C@H](O)c2ccccc2Cl)N1` [Example 23, (R)-(2-Chlorophenyl)((R)-5,5-dimethylpyrrolidin-2-yl)methanol hydrochloride] here?
A: > 75%

Q: And the Emax at 10 µM (L6-myotubes [2])?
A: < 25%

Q: Which Emax at 10 µM (L6-myotubes [1]) does the source give for `CCCC1(CCC)CC[C@H]([C@H](O)c2cccc(F)c2)N1` [Example 27, (R)-((R)-5,5-Dipropylpyrrolidin-2-yl)(3-fluorophenyl)methanol hydrochloride] here?
A: 50 to 75%

Q: And the Emax at 10 µM (L6-myotubes [2])?
A: < 25%

Q: For `CC1(C)C[C@H]([C@@H](O)c2cccc(Cl)c2)N1.O=C(O)/C=C\C(=O)O` [Example 46, (S)-(3-chlorophenyl)((R)-4,4-dimethylazetidin-2-yl)methanol maleate], which “Biological example 3” value (L6-myotubes [1]) is on record?
A: − (less than 25%)

Q: And the “Biological example 4” value (L6-myotubes [2])?
A: − (less than 25%)

Q: With `CC1(C)CC[C@H]([C@@H](O)c2cccc(N)c2F)N1.Cl` [Example 50, (S)-(3-amino-2-fluorophenyl)((R)-5,5-dimethylpyrrolidin-2-yl)methanol hydrochloride] as the molecule, how does the “Biological example 3” value (L6-myotubes [1]) read?
A: + (between 50 and 25%)

Q: What about the “Biological example 4” value (L6-myotubes [2]) of the same molecule?
A: − (less than 25%)

Q: Which results are given for `CC1(C)CCC[C@H]([C@@H](O)c2cccc(F)c2)N1` [Example 2, (S)-((R)-6,6-Dimethylpiperidin-2-yl)(3-fluorophenyl)methanol]?
A: Emax at 10 µM (L6-myotubes [1]): < 25%; Emax at 10 µM (L6-myotubes [2]): < 25%

Q: What does the source list for `CC1(C)CCC[C@H]([C@H](O)c2ccccc2F)N1` [Example 9, (R)-((R)-6,6-Dimethylpiperidin-2-yl)(2-fluorophenyl)methanol hydrochloride]?
A: Emax at 10 µM (L6-myotubes [1]): 50 to 75%; Emax at 10 µM (L6-myotubes [2]): < 25%

Q: For `CC1(C)CC[C@@H]([C@@H](O)c2cccc(O)c2)N1` [Example 18], which Emax at 10 µM (L6-myotubes [1]) is on record?
A: < 25%

Q: What about the Emax at 10 µM (L6-myotubes [2]) of the same molecule?
A: < 25%

Q: Which results are given for `CC1(C)CC[C@H]([C@@H](O)c2ccc(F)cc2)N1` [Example 22, (S)-((R)-5,5-Dimethylpyrrolidin-2-yl)(4-fluorophenyl)methanol hydrochloride]?
A: Emax at 10 µM (L6-myotubes [1]): < 25%; Emax at 10 µM (L6-myotubes [2]): < 25%

Q: How did the Emax at 10 µM (L6-myotubes [1]) turn out when `O[C@H](c1cccc(F)c1)[C@H]1CCC2(CCCC2)N1` [Example 31, (R)-(3-Fluorophenyl)((R)-1-azaspiro[4.4]nonan-2-yl)methanol maleate] was run?
A: 50 to 75%

Q: And the Emax at 10 µM (L6-myotubes [2])?
A: 25 to 50%

Q: For `CC1(C)CC[C@H]([C@@H](O)c2cc(F)c(N)c(F)c2)N1.Cl` [Example 51, (S)-(4-Amino-3,5-difluorophenyl)((R)-5,5-dimethylpyrrolidin-2-yl)methanol hydrochloride], which “Biological example 3” value (L6-myotubes [1]) is on record?
A: +++ (more than 75% of that of isoproterenol)
